Entries after “also recorded” stand apart in the source; their conditions may differ.
Columns and labels:
[1] = test system: TNF-R1 (p55); assay: TNF-R1 (p55) morpholino antisense in HUVEC, flow cytometry; format: cell-based, human; settings: 4 hours
Excerpt: Morpholino phosphorodiamidate (MF) antisense oligonucleotides are used. Other chemical classes of antisense oligonucleotides that can be substituted for morpholinos include but are not limited to phosphorotioate oligonucleotides, N3′-P5′ phosphoramidate oligonucleotides (NP), locked nucleic acid (LNA), 2′-O-methoxyethyl nucleic acid (MOE), 2′-fluoro-arabinonucleic acid (FANA), peptide nucleic acids (PNA) (reviewed in Toulme, Nature Biotech. 19:17, 2001). In the example in FIG. 18, antisense oligonucleotides for TNF-R1 (p55) (5′-[…]-3′)(SEQ ID NO:1), and the beta-globin control oligo (5′-[…]-3′)(SEQ ID NO:2) (Gene Tools Inc.) are used. The transfection mixture is prepared by mixing […] of stock morpholino (0.5 mM), […], and 4 ml of 200 mM EPEI (Ethoxylated PolyEthylenimine), vortexed, incubated at room temperature for 20 minutes, and then mixed with 3.5 ml of serum-free media to give a final 0.6 μM morpholino concentration. HUVEC cells are plated the day before in 24-well plates at 4-6×10e4 cells/well. Cells are washed once with serum-free media and incubated with 0.4 ml of the morpholino transfection mixture at 37° C. for 3 hours. Morpholino is removed, regular media (Epithelial Growth Media with 2% fetal calf serum, Clonetics) is added and cells allowed to recover overnight. The efficiency of loading of cells with morphino is monitored in cells incubated with a fluorescent morpholino, and is typically essentially 100 percent. HUVEC cells are then treated with either TNF-α (0.5 ng/ml), or IL-1 (1 ng/ml), or media only. After 4 hours, cells are harvested and evaluated for the cell surface expression of ICAM-1 (1), VCAM-1 (2), E-selectin (3), and CD31 (4) by flow cytometry. […] The TNF-R1 antisense specifically blocks induction of ICAM-1 and VCAM-1 by TNF-α, while it has no effect on induction of the same markers by the independent cell surface receptor for IL-1.

[2] = test system: HUVEC cells; assay: Optimized inflammatory assay combination: HUVEC treated with IL-1+TNF-α+IFN-γ, readout parameters by cell-based ELISA; design: species or system human; settings: for activity (altered biomap) in the optimized assay combination: HUVEC, TNF-α (5 ng/ml)+IFN-γ (100 ng/ml)+IL-1, 24 hours
Method: Primary human umbilical vein endothelial cells (HUVEC) are used. Other cells that may replace HUVEC in the screen include primary microvascular endothelial cells, aortic or arteriolar endothelial cells or endothelial cell lines such as EAhy926 or E6-E7 4-5-2G cells or human telomerase reverse transcriptase-expressing endothelial cells (Simmons, J. Immunol., 148:267, 1992; Rhim, Carcinogenesis 19:673, 1998; Yang, J. Biol. Chem. 274:26141, 1999). 2×10^4 cells/ml are cultured to confluence in EGM-2 (Clonetics). Other media that may replace EGM-2 include EGM (Clonetics) and Ham's F12K medium supplemented with 0.1 mg/ml heparin and 0.03-0.05 mg/ml endothelial cell growth supplement (ECGS) and 10% FBS, or medium M199 (Life Technologies, Inc.) containing 20% fetal bovine serum and 2 ng/ml basic fibroblast growth factor (Jaffe, J. Clin. Invest. 52:2745, 1973; Hoshi, PNAS 81:6413, 1984). The disease environment present in chronic inflammatory diseases, such as Crohn's disease, differs from the normal condition by increased presence of multiple biologically active agents including IL-1, TNF-α, and IFN-γ (Woywodt, 1994; Kakazu, 1999). Other biologically active agents that may be increased in chronic inflammatory disease environments include IL-4, IL-6, IL-8, IL-12, IL-13, IL-18, TGFbeta, and histamine, as well as activated leukocytes and their products (Daig, 1996, Gut 38:216; Woywodt, 1994, Eur. cytokine Netw. 5:387; Kakazu, 1999 Am J. Gastroenterol. 94:2149; Pizarro, 1999, J. Immunol. 162:6829; Monteleone, 1999, J. Immunol. 163:143; […] Enteral Nutr 23:S20; Beck, 1999, […]. Bowel Dis. 5:44). Optimized assay combinations will contain at least two, and preferably three, four or more of these biologically active agents. Concentrations of agents are standard according to the literature, typically at physiologic concentrations. Concentrations may also be determined experimentally as the amount required to saturate the relevant receptor. A useful feature of the present invention is that combinatorial effects of multiple factors are observed over wide ranges of factor concentrations. Based on the factors included in an assay combination, a set of parameters for including in a biomap are selected. The experiments provided in FIG. 1A-1C illustrate the usefulness of the present invention in compound screening applications. […] After 24 hours, cultures are washed and evaluated for the presence of the parameters ICAM-1 (1), VCAM-1 (2), E-selectin (3), IL-8 (4), CD31 (5), HLA-DR (6) and MIG (7) by cell-based ELISA as described (Melrose, J. Immunol. 161:2457, 1998). For this, plates are blocked with 1% Blotto for 1 hr, and treated with primary antibodies (obtained from Pharmingen and Becton Dickinson) at 1 ng/ml for 2 hr. After washing, secondary peroxidase-conjugated anti-mouse IgG antibody (Promega) at 1:2500 is applied for 45 min. After washing, TMB substrate (Kierkegaard & Perry) is added and color developed. Development is stopped by addition of H2SO4 and the absorbance at 450 nm (subtracting the background absorbance at 600 nm) is read with a Molecular Dynamics plate reader. The relative expression levels of each parameter are indicated by the OD at 450 nm shown along the y-axis. The mean+/-SD from triplicate samples is shown. The assay combinations shown in FIG. 1 are useful in screening compounds that modulate TNF-α, IL-1 and IFN-γ signaling pathways, however, compounds must be evaluated separately in all three assay combinations to identify compounds that selectively modulate one or more of these pathways. In addition, compounds that selectively modulate combinatorial effects of these pathways cannot be distinguished. […] Confluent cultures of HUVEC cells are treated with TNF-α (5 ng/ml)+IFN-γ (100 ng/ml)+IL-1 (1 ng/ml) in the presence or absence of neutralizing anti-TNF-α or control antibody (Goat anti-IgG). […] In FIG. 3A, the relative expression of each parameter is shown along the y-axis as average value of the OD measured at 450 nm of triplicate samples. […]

[3] = test system: HUVEC cells; assay: Lactate dehydrogenase (LDH) in HUVEC culture supernatants, CytoTox96 assay; format: cell-based, human; settings: endothelial cell cultures
Method: Effect of over-expression of bcl-2 and bcl-xl proteins on a panel of assay combinations. HUVEC cells were transduced with either Bcl-2, Bcl-xL or control empty vector (control). Confluent cultures were treated with either ceramide (10 μm), TNF-α (5 ng/ml), ceramide (10 μm)+TNF-α (5 ng/ml), or media only. After 24 hours, cells were washed and evaluated for the surface expression of ICAM-1 (1), VCAM-1 (2), and MIG (3) by cell-based ELISA performed as described in FIG. 1. Cell supernatants were collected and analyzed for the presence of lactate dehydrogenase LDH (4) by CytoTox96 assay (Promega).
A panel of assay combinations that reproduces aspects of the response of the endothelial cells to inflammatory processes and stimuli enhancing apoptosis is used. […] Endothelial cells cultured under basal conditions display a low level of cell damage as measured by release of cytoplasmic lactate dehydrogenase from cells into the supernatant.

[4] = test system: HUVEC cells; assay: HUVEC in basal medium cultured with factor or agent for 24 hours, cell-based ELISA; design: species or system human; settings: HUVEC cultured with the factor/agent for 24 hours, vs basal medium
Method: After 24 hours, cultures are washed and evaluated for the presence of the parameters ICAM-1 (1), VCAM-1 (2), E-selectin (3), IL-8 (4), CD31 (5), HLA-DR (6) and MIG (7) by cell-based ELISA as described (Melrose, J. Immunol. 161:2457, 1998). For this, plates are blocked with 1% Blotto for 1 hr, and treated with primary antibodies (obtained from Pharmingen and Becton Dickinson) at 1 ng/ml for 2 hr. After washing, secondary peroxidase-conjugated anti-mouse IgG antibody (Promega) at 1:2500 is applied for 45 min. After washing, TMB substrate (Kierkegaard & Perry) is added and color developed. Development is stopped by addition of H2SO4 and the absorbance at 450 nm (subtracting the background absorbance at 600 nm) is read with a Molecular Dynamics plate reader. The relative expression levels of each parameter are indicated by the OD at 450 nm shown along the y-axis. The mean+/−SD from triplicate samples is shown.
After 24 hours, cultures are washed and evaluated for the presence of the parameters ICAM-1 (1), VCAM-1 (2), E-selectin (3), IL-8 (4), CD31 (5), HLA-DR (6) and MIG (7) by cell-based ELISA performed as described in FIG. 1 and are reported as the OD at 450 nm in FIG. 2. The mean+/−SD from triplicate samples are shown. * indicates p<0.05 comparing results obtained with the two separate conditions.
After 24 hours, cultures are washed and evaluated for the presence of the parameters ICAM-1 (1), VCAM-1 (2), E-selectin (3), IL-8 (4), CD31 (5), HLA-DR (6) and MIG (7) by cell-based ELISA performed as described in FIG. 1 and are reported as the OD at 450 nm. The mean+/−SD from triplicate samples are shown. * indicates p<0.05 comparing results obtained with the two separate conditions.

[5] = test system: HUVEC cells; assay: HUVEC assay combinations with single pathway activators (TNF-α, IL-1, IFN-γ or activating antibody to p55), biomaps by cell-based ELISA; design: species or system human
Method: Confluent cultures of HUVEC cells are treated with TNF-α (5 ng/ml), IFN-γ (100 ng/ml), IL-1 (20 ng/ml), the combination of TNF-α+IFN-γ+IL-1, or media in the presence or absence of Act-anti-p55. After 24 hours, cultures are washed and evaluated for the cell surface expression of ICAM-1 (1), VCAM-1 (2), E-selectin (3), IL-8 (4), and MIG (5) by cell-based ELISA performed as described in FIG. 1. A color-coded representation of the resulting biomaps prepared from the data is shown in FIG. 8, coded as described in FIG. 2B. […]

## 5′-AGGTCAGGCACGGTGGAGAGGC-3′ (all phosphorodiamidate morpholino (PMO)) [TNF-R1 antisense]
[1]; 0.6 μM morpholino, TNF-α (0.5 ng/ml)
  biomap versus control oligo upon treatment with TNF-α: altered biomap
[1]; IL-1 (1 ng/ml)
  induction of ICAM-1 by IL-1: no effect
  induction of VCAM-1 by IL-1: no effect
[1]; TNF-α (0.5 ng/ml)
  induction of ICAM-1 by TNF-α: blocks
  induction of VCAM-1 by TNF-α: blocks

## N#CC(C#N)=Cc1ccc([N+](=O)[O-])c(O)c1 [AG126]
[2]
  activity (altered biomap) in the optimized assay combination: active compounds

## CC(Cc1ccc(O)c(O)c1)C(C)Cc1ccc(O)c(O)c1 (stereo not shown) [NHGA, nordihydroguaiaretic acid]
[2]
  activity (altered biomap) in the optimized assay combination: altered biomaps

## COc1cccc(-c2cc(=O)c3ccccc3o2)c1N [PD098059]
[2]
  activity (altered biomap) in the optimized assay combination: altered biomaps

## S=C(S)N1CCCC1 [PDTC, pyrrolidine dithiocarbamate]
[2]
  activity (altered biomap) in the optimized assay combination: altered biomaps

## O=C(NC1=CC(=O)c2ccccc2C1=O)c1ccccc1 [PPM-18]
[2]; 2-fold above PPM-18 2 μM / AG126 25 μM
  cellular toxicity at higher concentrations (2-fold) when tested alone: cellular toxicity
[2]
  activity (altered biomap) in the optimized assay combination: active compounds

## ceramide
[3]
  release of cytoplasmic lactate dehydrogenase into the supernatant (cell damage) vs basal conditions: enhanced

B1: IFN-γ: cytokine used as factor (protein)
chain: QDPYVKEAENLKKYFNAGHSDVADNGTLFLGILKNWKEESDRKIMQSQIVSFYFKLFKNFKDDQSIQKSVETIKEDMNVKFFNSNKKKRDDFEKLTNYSVTDLNVQRKAIHELIQVMAELSPAAKTGKRKRSQMLFRGRRASQ
[4]
  level of HLA-DR: increased
  level of ICAM-1: increased
  level of MIG: increased

B2: p55-Fc: recombinant fusion protein containing the extracellular domains of the p55 TNF-α-receptor fused to immunoglobulin Fc domain (protein)
chain: LVPHLGDREKRDSVCPQGKYIHPQNNSICCTKCHKGTYLYNDCPGPGQDTDCRECESGSFTASENHLRHCLSCSKCRKEMGQVEISSCTVDRDTVCGCRKNQYRHYWSENLFQCFNCSLCLNGTVHLSCQEKQNTVCTCHAGFFLRENECVSCSNCKKSLECTKLCLPQIENVKGTEDSGTT
modifications: left off: a dimerising Fc or GST
notes: recombinant fusion protein containing the extracellular domains of the p55 TNF-α-receptor fused to immunoglobulin Fc domain
[2]
  activity (altered biomap) in the optimized assay combination: active compound
[5]; Act-anti-p55, 24 hours
  biomap of cultures containing activating antibody to TNF-α-receptor p55: sensitivity to the agent: is sensitive; also recorded: alters
[5]; IL-1, 24 hours
  biomap of the assay combination containing IL-1 alone: sensitivity to the agent: not sensitive
[5]; TNF-α (5 ng/ml), 24 hours
  biomap of the assay combination containing TNF-α alone: sensitivity to the agent: altered; also recorded: is sensitive
